Values joined by “and” are separate entries in the source; they are usually repeats but may differ in a detail not shown here. Identical values can stand only once.
How the values were obtained:
inflamed rat paw model = experiment: inflamed rat paw model: pain threshold after local carrageenan (Randall and Selitto); assay type: in vivo; conditions: for antagonism of the anti-nociceptive effect of protein C: β-blocking agent given with protein C; for Pain threshold: 3 hrs after carrageenan, protein C 800 U/kg
Description: See, Kirchhoff et al., Neuroscience Lett. 111:206-210 (1990). Subcutaneous administration of carrageenan into the rat paw produces an inflammatory edema characterized by infiltration of neutrophils, plasma extravasation, release and synthesis of histamine, bradykinins and prostaglandin E2. Id. As such, the rat paw is a recognized model of the inflammatory process and may be utilized for studying the nociceptive effects attendant thereto. Id. Thus, the rat paw provides a recognized model for evaluating the anti-nociceptive effects of protein C and/or the activation peptide of protein C according to the present invention.
The pain threshold was measured in a manner analogous to the method described by Randall and Selitto (Randall LO and Selitto JJ: A method for measurement of analgesic activity on inflamed tissue, Arch. Int. Pharmacodyn. 111, 409-419, 1957). To this end, a mercury manometer was connected to a 10 ml syringe whose plunger was equipped with a short bullet-shaped peg. Increasing pressure was applied to the rat's paw through this syringe (20 mmHg/s). The pain threshold was defined as the pressure in mmHg required to induce a flight (struggle) reaction.
Female Sprague-Dawley rats weighing between 250 and 350 g were used. Inflammation was produced by the intraplanter (i.pl.) injection of 3 mg carrageenan (Sigma Chemical Co., Cat. No., C-1013) suspended in 100 μl isotonic saline solution (0.9%) into the rat's paw.
The pain threshold was measured before (control value) and every hour up to six hours after the injection of carrageenan. The pain threshold measured after carrageenan injection was expressed in percent of the control value.
Unless otherwise specified, protein C was intravenously injected into a vein of the tail immediately upon the carrageenan injection. The injection volume was 2 ml/kg.
A dose response curve for protein C administered i.v. and protein C (i.v.) immediately followed by a solution of 1 mg/kg antibody HPC-4 (i.v.) was determined. The experiments were carried out essentially as set forth in Example 4.
The anti-nociceptive effects of the activation peptide of protein C (SEQ. ID. NO. 1) prepared as described in Example 7 were determined essentially as described in Examples 4 and 6. In the test animals, the […], each, in a constant injection volume of 2 ml/kg, simultaneously with intraplantar (i.pl.) administration of carrageenan into the rat's paw to induce an inflammatory response and pain. In a second set of test animals, antibody HPC-4 (1 mg/kg) was administered i.v. immediately following i.v. administration of the peptide (SEQ. ID. NO. 1). The anti-nociceptive effects of the peptide (SEQ. ID. NO. 1) administration and antagonism thereof by antibody HPC-4 as measured 6 hours later are shown in FIG. 3.

coronary blood flow = conditions: intracoronary administration; cited from earlier work
[1] = system: thrombus formation on prosthetic vascular grafts; conditions: infusion; Gruber et al. 1989; cited from earlier work
endotoxin shock = conditions: Taylor et al. 1987; cited from earlier work
[2] = system: histamine-induced enhanced vascular permeability; experiment: histamine-induced enhanced vascular permeability (Evan's Blue wheals); assay type: in vivo, guinea pigs
Protocol: (§1) The effect of protein C on capillary leakage in guinea pigs was studied in order to confirm the efficacy of protein C in antagonizing enhanced vessel permeability in anesthetized guinea pigs. The study was carried out as follows:
(§2) After intravenous administration of Evan's Blue, anesthetized guinea pigs received either a protein C concentrate or a formulation buffer. Thereafter, the test animals were treated with histamine or thrombin intracutaneously to induce enhanced vessel permeability, or with saline as a control. The animals were then examined visually for the occurrence of discoloration of the resulting wheals. The results are depicted in FIG. 4 (histamine treatment, protein C or saline), FIG. 5 (thrombin treatment, protein C or saline) and FIG. 6 (thrombin treatment, buffer or saline).
(§3) In these studies, a colorless wheal was recorded as a negative observation (i.e., no disturbance in permeability), whereas a blue skin coloration at the injection site was defined as a positive observation (i.e. increased vessel permeability). The percentage of positive wheals among total wheals produced by the same substance and does within each group of treated animals (n=12 per treatment group) was calculated. […]

[3] = system: thrombin-induced enhanced vascular permeability; experiment: thrombin-induced enhanced vascular permeability (Evan's Blue wheals); assay type: in vivo, guinea pigs
Protocol: as §1, §2, §3

[4] = protein C activity, aminolytic assay after activation by Protac; assay type: biochemical; conditions: finished lyophilized preparation; 1 unit = protein C activity in 1 ml normal plasma
Protocol: The prothrombin complex concentrate was dissolved in the absorption buffer of Example 1, with about 10 g of the prothrombin complex concentrate being employed for a 20 ml monoclonal antibody column. Subsequently, the dissolved prothrombin complex concentrate was filtered, centrifuged at 20,000 r.p.m. for 15 min. and sterilely filtered through a 0.8 μm filter. The sterilely filtered and dissolved prothrombin complex concentrate was applied to the column at a flow rate of 10 ml/h. Subsequently, the column was washed free of protein with the washing buffer of Example 1, the bound protein C was eluted by means of the elution buffer of Example 1 at a flow rate of 5 ml/h and the fractions containing eluted protein C were collected and pooled. The eluted protein C was dialyzed against a buffer (0.2 mol/1 Tris, 0.15 mol glycine and 1 mmol EDTA, pH 8.3). Protein C antigen concentration was determined using the method described by Laurell, and protein C activity was determined using Protac activation.
The lyophilized, virus inactivated material was then dissolved in a sterile isotonic NaCl solution and any antibodies or serum amyloid P potentially present in the preparation were eliminated by means of ion exchange chromatography on a Q-Sepharose column. […] Neither murine immunoglobulin nor Factors II, VII, IX and X could be detected. […]

perivascular leukocytes = experiment: histological examination of the rat paws; assay type: in vivo; conditions: rat paws after protein C, compared to untreated animals
Description: Thus, protein C appears to have an effect on vessel permeability, which allows the migration of leukocytes through the blood vessel into the perivascular region.

CC(Cc1ccc(O)cc1)NCC(O)c1cc(O)cc(O)c1 (centres unmarked) [fenoterol, reference compound]
anti-nociceptive effect (inflamed rat paw model; i.v., either 5 mg/kg at the beginning of the assay or 3 mg/kg at the 3 hr time point): marked anti-nociceptive effect

CC(C)NCC(O)COc1cccc2[nH]ccc12 (centres unmarked) [pindolol, reference compound]
antagonism of the effect of protein C in sympathectomized animals (inflamed rat paw model; reserpine and alpha-methyl-p-tyrosine treated): completely antagonizes the effect of protein C
antagonism of the anti-nociceptive effect of protein C (inflamed rat paw model): antagonize the effect of protein C in a dose-dependent manner

CC(C)NCC(O)COc1cccc2ccccc12 (centres unmarked) [propranolol, reference compound]
antagonism of the anti-nociceptive effect of protein C (inflamed rat paw model): antagonizes the anti-nociceptive effect of protein C

NH2 -Asp-Thr-Glu-Asp-Gln-Glu-Asp-Gln-Val-Asp-Pro-Arg-COOH (H-DTEDQEDQVDPR-OH) [activation peptide of protein C]
anti-nociceptive effect (inflamed rat paw model; peptide i.v. 3.125 to 100 μg/kg, measured 6 hours later, FIG. 3): has an anti-nociceptive effect

activated protein C
coronary blood flow (coronary blood flow): increase in coronary blood flow
thrombotic occlusion [1]: Thrombotic occlusion was prevented
protection against coagulopathic and lethal effects of endotoxin shock (endotoxin shock): protect animals against the coagulopathic and lethal effects of endotoxin shock

protein C: Highly purified human protein C zymogen from prothrombin complex concentrate, purified by monoclonal antibody affinity chromatography, virus inactivated
shift of the histamine dose-response curve to the right (factor) ([2]; 800 IU protein C/Kg i.v., % positive wheals, FIG. 4): 4
effect on histamine-increased endothelial permeability ([2]; pretreatment with protein C): effective in preventing the effects of both histamine and thrombin on increased endothelial permeability
Pain threshold (inflamed rat paw model; % of the pain threshold (control value)): 65 ± 2.0% and 60 ± 6%
Pain threshold (inflamed rat paw model; animals treated with reserpine and alpha-methyl-p-tyrosine): 106.7 ± 18.1%
anti-nociceptive effect (inflamed rat paw model; protein C i.v. immediately upon carrageenan, 8 to 800 U/kg, FIG. 1): significant, dose-dependent anti-nociceptive effect
signs of inflammation, such as oedema (inflamed rat paw model; protein C intravenously, carrageenan intraplantar): signs of inflammation, such as oedema, were reduced
anti-nociceptive effect after chemical sympathectomy (inflamed rat paw model; reserpine 7.5 mg/kg i.p. and alpha-methyl-p-tyrosine 250 mg/kg i.p.): still acts as a highly effective anti-nociceptive
anti-nociceptive effect (inflamed rat paw model; subcutaneous administration): also detectable with subcutaneous administration
shift of the thrombin dose-response curve to the right (factor) ([3]; 800 IU protein C/Kg i.v., % positive wheals, FIG. 5): 9
effect on thrombin-increased endothelial permeability ([3]; pretreatment with protein C): effective in preventing the effects of both histamine and thrombin on increased endothelial permeability
specific activity [4]: 14 units protein C per mg
number of perivascular leukocytes (perivascular leukocytes): reduced number of perivascular leukocytes compared to the untreated animals

Reference: patent US5571786A, “Use of protein C or the activation peptide of protein C for preparing a pharmaceutical preparation” (Immuno Aktiengesellschaft, priority 1990, dated 1996)
